These results are taken from paper PMC5515971, “Utility of spherical human liver microtissues for prediction of clinical drug-induced liver injury” (Archives of Toxicology, 2017).

Data set [1] concerns 3D human liver microtissues (hLiMT). Kind of data set: Cytotoxicity (cellular ATP, CellTiter-Glo 2.0) in 3D human liver microtissues, 14 day repeat-dose treatment. To be noted: for IC50: Homo sapiens, Hepatocyte, 336 h, read-out: Geomean IC50 [µM].
For data set [2], the system named is primary human hepatocytes (PHH). The data set is described as follows: Cytotoxicity (cellular ATP, CellTiter-Glo) in 2D plated primary human hepatocytes, 48 h treatment.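 Further: 384-well plates, luminescence read-out, normalized to vehicle wells with 1% DMSO.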 Type of data set: cell-based. Particulars: Hepatocyte; 2D primary human hepatocytes (lot IZT), 48 h treatment, total cellular ATP content; read-out: Geomean IC50. A general note: ATP-based viability assays read luminescence as a measure of living cells.

Data set [3] has as its system 3D human liver microtissues (hLiMT).
The conditions of data set [4]: cited from earlier work; for P/N (DILI positive / DILI negative): P = DILI severity categories 1, 2 and 3, N = categories 4 and 5; for DILI category: clinical, from literature and product labels, ref Garside et al. 2014.
The nature of data set [5]: Clinical DILI severity categorization and DILI pattern. Particulars: P = DILI severity categories 1, 2 and 3; N = categories 4 and 5.
For data set [6] the following is noted: ref Chen et al 2016 / Chen et al 2011; cited from earlier work.
For data set [7] the following is noted: cited from earlier work.
Data set [8] relates to BSEP transporter. Set-up: method as in Kenna et al. [2015]. To be noted: ref Kenna et al. [2015]; cited from earlier work.
Where [9] appears, read: Table 1, ref Garside et al. (2014).
Setting [10] is: clinical DILI severity category, 1-5.
[11] abbreviates: human Cmax total, used for IC50/Cmax.
Where [12] appears, read: human total plasma Cmax, ref literature values.

“Also recorded” adds a separate entry of the source. Like-named read-outs stand apart in the source and are kept apart here. Bounds are passed on as bounds.

As a reminder, the IC50 is the concentration that inhibits the measured activity by half. As for `Nc1c2c(nc3ccccc13)CCCC2` [Tacrine], the IC50 was roughly 69.6 µM in data set [1] and 106 µM in data set [2]. Besides, the “Geomean IC50/cmax” value in data set [3] is recorded as 696.2.
A word on the Cmax: it is the peak of the concentration-time curve. As for `Nc1nc(F)nc2c1ncn2[C@@H]1O[C@H](CO)[C@@H](O)[C@@H]1O` [Fludarabine], the “P/N (DILI positive / DILI negative)” value in data set [4] and in data set [5] was “N” throughout. The DILI severity category in data set [4] (setting [9]) was 4: Enzyme elevations in clinic (N = 16); in data set [4] (setting [10]), 4. Enzyme Elevations in Clinic. Moreover, in data set [4], the DILI category is given as 4. Enzyme Elevations in Clinic. Further, the values for the IC50 in data set [1] and in data set [2] were 6.8 µM and greater than 50 µM, respectively. In addition, the “Geomean IC50/cmax” value in data set [3] is given as 39.9. The “FDA DILI Classification DILI severity score” value in data set [6] was 0. Besides, the “LTKB DILI classification” value in data set [6] is “no DILI concern”. The Cmax in data set [7] (setting [11]) and in data set [7] (setting [12]) was 170 nM each time.
Take `CC(COc1ccccc1)N(CCCl)Cc1ccccc1` (stereo not drawn) [Phenoxybenzamine]: the IC50 was greater than 25 µM in data set [1] and greater than 50 µM in data set [2]. Moreover, the “Geomean IC50/cmax” value in data set [3] is listed as greater than 126.9. In data set [7] (setting [12]), the Cmax is 200 nM.
Regarding `COC(c1ccccc1)(c1ccccc1)[C@H](Oc1nc(C)cc(C)n1)C(=O)O` [Ambrisentan], the “P/N (DILI positive / DILI negative)” value in data set [4] and in data set [5] was “N” in each case. Besides, the DILI severity category is 5: No DILI (N = 25) in data set [4] (setting [9]) and 5. No DILI in data set [4] (setting [10]). Moreover, the DILI category in data set [4] is given as 5. No DILI. For the same molecule, the IC50 in data set [1] and in data set [2] was greater than 100 µM each time. Moreover, the cytotoxicity entry in data set [1] (hLiMT 14 days, in words) is reported as “did not detect cytotoxicity; also recorded: not cytotoxic”. Moreover, the “fold lower potency to inhibit BSEP transporter function than bosentan” value in data set [8] is listed as 10 fold. The “fold lower potency to inhibit BSEP transporter function than sitax(s)entan” value in data set [8] is listed as 30 fold. In addition, the “FDA DILI Classification DILI severity score” value in data set [6] is 7. Also, the “LTKB DILI classification” value in data set [6] is given as “Ambiguous DILI concern”. Moreover, the Cmax in data set [7] (setting [11]) and in data set [7] (setting [12]) was 790 nM each time.
